The record followed here is US8703805B2 (Exelixis Patent Company LLC, priority 2005, dated 2014).

Where only a bound is given, the exact number is not on record here.

The assay concerns LXRα and/or LXRβ. Description: LXR/LXRE co-transfection assay (luciferase reporter, CV-1 cells). The assay is classed as cell-based, human. The note with it: IC50 or EC50 for LXR (LXRα and/or LXRβ, not distinguished), tested as described in Example 109, CV-1 cells. Put shortly:
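Transient co-transfection of CV-1 cells with full-length human LXRα or LXRβ plus RXRα expression plasmids and an LXREx1-Tk-luciferase reporter; compounds (10 μM screen, ≤1% DMSO) incubated 20 h at 37 °C. Luminescence read after lysis; EC50/IC50 from 8-point half-log curves, efficacy relative to a high control or DMSO.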
A general note: A reporter such as luciferase makes a cellular process visible.

`CC(C)(O)c1nn(-c2ccc(-c3cccc(S(C)(=O)=O)c3)cc2Cl)c(-c2ccccc2C(F)(F)F)c1Cl` [Example 1421, 2-(4-chloro-1-(3-chloro-3′-(methylsulfonyl)biphenyl-4-yl)-5-(2-(trifluoromethyl)phenyl)-1H-pyrazol-3-yl)propan-2-ol] displayed a half-maximal effective concentration (EC50) of less than 1000 nM.
`Cc1cc(-c2cccc(S(C)(=O)=O)c2)ccc1-n1nc(C(C)(C)O)c(Cl)c1-c1ccccc1Cl` [Example 1422, 2-(4-chloro-5-(2-chlorophenyol)-1-(3-methyl-3′-(methylsulfonyl)biphenyl-4-yl)-1H-pyrazol-3-yl)propan-2-ol] gave an EC50 of less than 1000 nM.
On to `CC(C)(O)c1nn(-c2ccc(-c3cccc(S(C)(=O)=O)c3)cc2Cl)c(-c2ccccc2Cl)c1Cl` [Example 1423, 2-(4-chloro-1-(3-chloro-3′-(methylsulfonyl)biphenyl-4-yl)-5-(2-chlorophenyl)-1H-pyrazol-3-yl)propan-2-ol], for which the 50% effective concentration (EC50) is less than 1000 nM.
The value for `Cc1cc(-c2cccc(S(C)(=O)=O)c2)ccc1-n1nc(C(C)(C)O)c(Cl)c1-c1c(Cl)cccc1Cl` [Example 1424, 2-(4-chloro-5-(2,6-dichlorophenyl)-1-(3-methyl-3′-(methylsulfonyl)biphenyl-4-yl)-1H-pyrazol-3-yl)propan-2-ol] was less than 1000 nM; that for `CC(C)(O)c1nn(-c2ccc(-c3cccc(S(C)(=O)=O)c3)cc2Cl)c(-c2cccc(F)c2F)c1Cl` [Example 1427, 2-(4-chloro-1-(3-chloro-3′-(methylsulfonyl)biphenyl-4-yl)-5-(2,3-difluorophenyl)-1H-pyrazol-3-yl)propan-2-ol] was less than 1000 nM.

What is called EC50 is the concentration needed to bring the measured effect to its halfway point. High values mean a less potent agent, low ones a more potent agent.
